Laboratory results published in US8192767B2, “Antioxidant compositions comprising extracts of myrtle and rosemary” (Nuraging Biotech S.R.L., priority 2006, dated 2012).

Key:
[1] = DPPH (2,2-diphenyl-1-picryl-hydrazyl) spectrophotometric antioxidant test in ethanol, 517 nm; type: biochemical; settings: DPPH 6.0×10^−6 M
Text: The antioxidant activity of the combination which is the object of the present invention can be assayed in vitro using the DPPH (2,2-diphenyl-1-picryl-hydrazyl) spectrophotometric method. This method makes it possible to determine the antioxidant potential of a molecule to be assayed by measuring the variation of the absorbance of the radical DPPH in its presence at the wavelength of 517 nm (as reported in the literature) [Blois M. S., Antioxidant determination by the use of a stable free radical—Nature, 181:1199-1200; (1958)], according to the reaction: Z·+AH=ZH+A· [1] where: • Z· is the radical DPPH • AH is the single antioxidant (reducing) molecule present in the composition or in the extract • ZH is the reduced form of DPPH • A· is the free radical produced by oxidation of the antioxidant molecule.
The greater the reduction of the absorbance of the radical DPPH in solution, the greater will be the antioxidant potential of the molecule studied. The final results of the assay are expressed as EC50, i.e. as the concentration of antioxidant molecule at which there is a 50% reduction of the DPPH radical according to the following formula: % Inhibition=[A(T0)−A(Tn/A(T0)] • A(T0)=absorbance of the control sample at time 0 • A(Tn)=absorbance in the presence of the antioxidant sample at time n.
The antioxidant capacity of the combination according to the present invention was assayed in ethanol, using a DPPH concentration of 6.0×10^−6 M and final concentrations of each extract, previously solubilised in ethanol, ranging from 1 mcg/ml to 3 mg/ml. For the purposes of evaluating the synergistic effect the extracts were also assayed in a mixture in ratios ranging from 0.1:1 to 9.9:1. The myrtle and rosemary extracts were each subjected to the same extraction procedure, selected from among those indicated above, then brought to dryness and redissolved in ethanol at the desired concentrations so as to standardise the evaluation methodology. The absorbance was then determined at the wavelength of 517 nm in 1 cm quartz cells.

[2] = tested on: rat pheochromocytoma PC12 cell line; assay: ATPLite test: ATP production of PC12 cells after H2O2-induced toxicity; type: cell-based; settings: H2O2 200 μM without addition of extracts
Text: The test used was the ATPLite™ test (Perkin Elmer, Milan), an ATP monitoring system based on luciferase, which permits assessment of the cytostatic and proliferative effects of various biological compounds. [Cree I. A. and Andreotti P. E. Measurement of cytotoxicity by ATP-based luminescence assay in primary cell cultures and cell lines—Toxicology in Vitro, 11, 553-556; (1997); Guan S., Bao Y. M., Jiang B., An L. Protective effect of protocatechuic acid from Alpinia oxyphylla on hydrogen peroxide-induced oxidative PC12 cell death—Eur. J. Pharmacol. 24: 538; (2006)].
The rat pheochromocytoma PC12 cell line (European Collection of Cell Cultures—ECACC, Sigma Aldrich, Milan) was used to evaluate the potential protective effects of extracts of rosemary (the same extract as described above in example 1) and of myrtle (the same extract as described above in example 2) against the toxicity induced by hydrogen peroxide (H2O2). The cells were grown on 96-well plates treated with poly-D-lysine (Sigma Aldrich, Milan) in D-MEM culture medium added with fetal bovine serum (FBS), penicillin/streptomycin, gentamycin, L-glutamine (all Invitrogen, Milan). […] After 24 hours the activity of the extracts on ATP production was evaluated using a Victor 3 spectrophotometer (Perkin Elmer, Milan). […]

SMILES	decrease in the absorbance of DPPH ([1]; BHA 0.01 mg/ml in ethanol) [%]	decrease in the absorbance of DPPH ([1]; BHA 0.1 mg/ml in ethanol) [%]	decrease in the absorbance of DPPH ([1]; BHA 1 mg/ml in ethanol) [%]	ATP production vs vehicle [2]
COc1ccc(O)c(C(C)(C)C)c1 [BHA, butylated hydroxyl anisol]	96.63	95.41	92.18	
OO [H2O2, hydrogen peroxide]				−80%±4.1
